The values that follow come from patent US20040106135A1, “Assay for PPAR ligand dependent gene modulation” (priority 2002, published 2004).

The EC50 is the concentration that produces a half-maximal response.

Read-outs that look alike come from different tables or passages of the source.

The test system of assay [1] is PDK-4 mRNA in HK-2 cells (endogenous PPARα). As to the kind of experiment: PDK-4 mRNA induction in HK-2 cells (real-time RT-PCR). As to conditions: for EC50: 24 hours. Type of assay: cell-based, human. As for the experimental part: Values were normalized to 18S rRNA levels.
EC50 values were determined for PDK-4 mRNA induction by quantitative PCR under conditions used to generate the data shown in FIG. 2. EC50 values in the transactivation assays were determined by transfection of an expression plasmid encoding a GAL4-hPPARα chimera into cells co-expressing a luciferase reporter gene under the transcriptional control of GAL4 upstream activating elements.
Cell culture: The following cell lines were obtained from American Type Culture Collection (ATCC) and cultured in the recommended medium for each cell type: HepG2, HK-2, Caki-1, LNCaP (CloneFGC), SW872, and ACHN. PPARα compounds were prepared to a 500× stock in DMSO; corresponding control cells received an equal volume of vehicle (0.2% v/v).
Real-time PCR: Fluorescence-based real-time PCR was performed essentially as described (Abbaszade et al., (1999) J. Biol. Chem. 274:23443-23450). Primers and probes designed from the hamster pyruvate dehydrogenase kinase 4 (PDK4) sequence (Genbank Accession No. AF321218), human pyruvate dehydrogenase kinase 4 (PDK-4) sequence (Genbank Accession No. NM_002612) and human adipose differentiation-related protein (ADFP) sequence (Genbank Accession No. NM_001122) were synthesized and purified by Biosearch Technologies. Probes for ADFP and PDK-4 were modified at the 5′ end with the reporter dye 6-FAM, and at the 3′ end with the quencher dye Black Hole Quencher 1 (Biosearch Technologies). Probes detecting rat 18S rRNA were modified at the 5′ end with VIC and at the 3′ end with TAMRA (Biosearch Technologies). For detection of hamster PDK4, primers 5′-[…] (SEQ ID NO:2), 5′[…] (SEQ ID NO:3), and probe 5′-[…] (SEQ ID NO:4) were used. For detection of human PDK4, primers 5′-[…] (SEQ ID NO:5), 5′-[…] (SEQ ID NO:6), and probe 5′-[…] (SEQ ID NO:7) were used. For detection of human ADFP, primers 5′-[…] (SEQ ID NO:8), 5′-[…] (SEQ ID NO:9), and probe 5′-[…] (SEQ ID NO: 10) were used. For detection of 18s rRNA, primers 5′-[…] (SEQ ID NO:11), 5′-[…] (SEQ ID NO:12), and probe 5′-[…] (SEQ ID NO:13) were used. Template cDNA was generated using the Advantage RT-PCR kit according to the manufacturer's (Clontech) instructions using random hexamers and 1 μg of DNaseI-treated total RNA. Taqman-based real-time PCR expression profiling was performed using 25 ng of each cDNA according to the manufacturer's (PE Biosystems) instructions with fluorescence being monitored in real-time with an ABI Prism 7700 (PE Biosystems). Relative expression levels were determined essentially as described (Gibson et al., (1996) Genome Res. 6:995-1001) using standard curves for each transcript. Relative abundance was then determined from these standard curves, subtracting mRNA levels obtained from negative control reactions performed in the absence of reverse transcriptase, and normalized to 18S rRNA levels. All expression measurements were performed in duplicate in two independent assays, generating a total of four measurements per cDNA.
A general note: In qPCR the cycle at which signal appears reflects the starting amount.

The test system of assay [2] is hamster PDK-4 mRNA in liver. As to the kind of experiment: PDK-4 mRNA induction in liver of fat-fed hamsters. The format is in vivo. As to conditions: single dose (GW9578 3 mg/kg, fenofibrate 100 mg/kg, gemfibrozil 500 mg/kg), 16 hour post-treatment. As to the method: FIG. 4A is a bar graph depicting the induction of PDK-4 mRNA in hamster liver by PPARα ligands. […] After 16 hours, the tissues were harvested, total RNA isolated and levels of hamster PDK-4 mRNA were detected by RT-PCR. The values are normalized to 18S rRNA levels. The mean and SEM of three individual animals are shown.
PDK-4 plays a critical role in regulating glucose metabolism by phosphorylating and inactivating the pyruvate dehydrogenase complex in response to increased fatty acid oxidation. […] To investigate the response of PDK-4 to fibrate treatment in vivo, in another aspect of the present invention the fat-fed hamster model was employed, which closely mimics the serum lipid profiles of humans than other rodent models (Sullivan et al., (1993) Lab. Anim. Sci. 43:575-578). […] These doses were previously shown to yield maximal effects on blood triglycerides in hamster. […] In hamster kidney, the basal levels of PDK-4 mRNA were approximately 10-fold higher than in the liver (FIG. 4B). […] Fibrates are effective treatments for lowering serum triglyceride levels. To verify that the doses used in this study were efficacious, blood triglyceride levels were monitored over a 48 hour time course.
Real-time PCR: Fluorescence-based real-time PCR was performed essentially as described (Abbaszade et al., (1999) J. Biol. Chem. 274:23443-23450). […] Taqman-based real-time PCR expression profiling was performed using 25 ng of each cDNA according to the manufacturer's (PE Biosystems) instructions with fluorescence being monitored in real-time with an ABI Prism 7700 (PE Biosystems). Relative expression levels were determined essentially as described (Gibson et al., (1996) Genome Res. 6:995-1001) using standard curves for each transcript. Relative abundance was then determined from these standard curves, subtracting mRNA levels obtained from negative control reactions performed in the absence of reverse transcriptase, and normalized to 18S rRNA levels. […]

`CCCCCCCN(CCc1ccc(SC(C)(C)C(=O)O)cc1)C(=O)Nc1ccc(F)cc1F` [GW9578, ureido-thioisobutyric acid]: the concentration for a half-maximal effect (EC50) was roughly 0.01 µM in assay [1] (RT-PCR, read-out: EC50 for activation of PDK-4 in HK-2 cells) and 0.01 µM in assay [1] (PDK-4 mRNA induction by quantitative PCR, normalized to 18S rRNA, read-out: EC50 (μM) in HK-2 (PDK-4)). The “Time to near maximal increase of PDK-4 mRNA” value in assay [1] (HK-2 cells, 100 nM GW9578) is no more than 2 h. In assay [2], the “Induction of PDK-4 mRNA levels in the liver” value is 200 fold.
